Key:
Type in all cases: in vivo
Wheat [1] = experiment: Post-emergence herbicidal activity (Example 32); design: key: 0-3 scale: 0 = 0-25% damage, 3 = 75-99% kill, 3+ = 100% kill; conditions: 3 weeks after spraying
Procedure: (§1) Concentrated formulations of the compounds of the invention were prepared by: • a) in the case of oils and waxy solids, dissolving the compound in toluene containing 7% v/v "Teric" N13 ("Teric" is a Trade MarK and "Teric" N13, a product of ethoxylation of nonylphenol, is available from ICI Australia Limited) and 3% v/v "Kemmat" SC15B ("Kemmat" is a Trade Mark and "Kemmat" SC15B is a formulation of calcium dodecylbenzene sulfonate); or • b) in the case of crystalline solids, adding 5 parts by weight of the compound and 1 part by weight of . ''Dyapol" PT ("Dyapol" is a Trade Mark and "Dyapol" PT is an anionic suspending agent) to 94 parts by weight of an aqueous solution containing 0.25% v/v of "Teric" N8 (a product of ethoxylation of nonylphenol) and ball-milling the mixture to produce a stable suspension. The emulsifiable concentrates and suspensions were then diluted with water to give an aqueous composition of the required concentration suitable for use in the evaluation of the pre-emergence and post-emergence herbicidal activity of the compounds of the invention.
(§2) The post-emergent herbicidal activity of the compounds of the invention formulated as described in Example 30 was assessed by the following procedure.
(§3) The seeds of the test species were sown in rows 2 cm deep in soil contained in seed boxes. The monocotyledonous plants and the dicotyledonous plants were sown in separate seed boxes in duplicate. The four seed boxes were placed in a glasshouse, lightly watered with an overhead spray to initiate germination and then sub-irrigated as required for optimum plant growth. After the plants had grown to a height of about 10 to 12.5 cm one box of each of the monocotyledonous plants and the dicotyledonous plants was removed from the glasshouse and sprayed with the required quantity of a composition of the invention. After spraying the boxes were returned to the glasshouse for further 3 weeks and the effects of the treatment was visually assessed by comparison with the untreated controls. The results are presented in Table 4 where the damage to plants is rated on a scale of from 0 to 3 where 0 represents 0 to 25% damage, 3 represents 75 to 99% kill and 3+ represents 100% kill. A dash (-) means that no experiment was carried out.

Ipomea [2] = experiment: Post-emergence herbicidal activity (Example 32); conditions: 3 weeks after spraying
Procedure: as §1, §2, §3

Japanese millet [3] = experiment: Post-emergence herbicidal activity (Example 32); conditions: 3 weeks after spraying
Procedure: as §1, §2, §3

Mustard [4] = experiment: Post-emergence herbicidal activity (Example 32); conditions: 3 weeks after spraying
Procedure: as §1, §2, §3

Ryegrass [5] = experiment: Post-emergence herbicidal activity (Example 32); conditions: 3 weeks after spraying
Procedure: as §1, §2, §3

Sunflower [6] = experiment: Post-emergence herbicidal activity (Example 32); conditions: 3 weeks after spraying
Procedure: as §1, §2, §3

Wild Oats [7] = experiment: Post-emergence herbicidal activity (Example 32); conditions: 3 weeks after spraying
Procedure: as §1, §2, §3

Ryegrass [8] = experiment: Pre-emergence herbicidal activity (Example 31); design: key: 0-3 scale: 0 = 0-25% damage, 3 = 75-99% kill, 3+ = 100% kill; conditions: after three weeks
Procedure: as §1
(§4) The pre-emergent herbicidal activity of the compounds of the invention formulated as described in Example 30 was assessed by the following procedure.
(§5) The seeds of the test species were sown in rows 2 cm deep in soil contained in seed boxes. The monocotyledonous plants and the dicotyledonous plants were sprayed with the required quantity of a composition of the invention. Two duplicate seed Doxes were prepared in the same manner but were not sprayed with a composition of the invention and were used for comparison purposes. All the boxes were placed in a glasshouse, lightly watered with an overhead spray to initiate germination and then sub-irrigated as required for optimum plant growth. After three weeks the boxes were removed from the glasshouse and the effect of the treatment was visually assessed. The results are presented in Table 3 where the damage to plants is rated on a scale of from 0 to 3 where 0 represents from 0 to 25% damage, 3 represents 75 to 99% kill and 3+ represents 100% kill.
(§6) A dash (-) means that no experiment was carried out.

Wheat [9] = experiment: Pre-emergence herbicidal activity (Example 31); design: key: 0-3 scale: 0 = 0-25% damage, 3 = 75-99% kill, 3+ = 100% kill; conditions: after three weeks
Procedure: as §1, §4, §5, §6

Ipomea [10] = experiment: Pre-emergence herbicidal activity (Example 31); conditions: after three weeks
Procedure: as §1, §4, §5, §6

Japanese millet [11] = experiment: Pre-emergence herbicidal activity (Example 31); conditions: after three weeks
Procedure: as §1, §4, §5, §6

Mustard [12] = experiment: Pre-emergence herbicidal activity (Example 31); conditions: after three weeks
Procedure: as §1, §4, §5, §6

Sunflower [13] = experiment: Pre-emergence herbicidal activity (Example 31); conditions: after three weeks
Procedure: as §1, §4, §5, §6

Wild Oats [14] = experiment: Pre-emergence herbicidal activity (Example 31); conditions: 5 kg/ha, after three weeks
Procedure: as §1, §4, §5, §6

SMILES | damage to plants, Wh (Wheat [1]; 5 kg/ha) | damage to plants, Ip (Ipomea [2]; 5 kg/ha) | damage to plants, Jm (Japanese millet [3]; 5 kg/ha) | damage to plants, Ms (Mustard [4]; 5 kg/ha) | damage to plants, Rg (Ryegrass [5]; 5 kg/ha) | damage to plants, Sf (Sunflower [6]; 5 kg/ha) | damage to plants, Ot (Wild Oats [7]; 5 kg/ha) | damage to plants, Rg (Ryegrass [8]; 1 kg/ha) | damage to plants, Rg (Ryegrass [8]; 5 kg/ha) | damage to plants, Wh (Wheat [9]; 1 kg/ha) | damage to plants, Wh (Wheat [9]; 5 kg/ha) | damage to plants, Ip (Ipomea [10]; 1 kg/ha) | damage to plants, Ip (Ipomea [10]; 5 kg/ha) | damage to plants, Ms (Mustard [12]; 5 kg/ha) | damage to plants, Sf (Sunflower [13]; 5 kg/ha) | damage to plants, Wh (Wheat [1]; 1 kg/ha) | damage to plants, Jm (Japanese millet [3]; 1 kg/ha) | damage to plants, Ms (Mustard [4]; 1 kg/ha) | damage to plants, Rg (Ryegrass [5]; 1 kg/ha) | damage to plants, Ot (Wild Oats [7]; 1 kg/ha) | other results
COC(=O)C(C)Oc1ccc(N(C)c2ccc(C(F)(F)F)cc2)cc1 (stereo not shown) [Compound 14, Methyl 2-[4-(4-trifluoromethyl-N-methylanilino)phenoxy]-propionate] | 0 (0 represents 0 to 25% damage) | 3+ (3+ represents 100% kill) | 3 (3 represents 75 to 99% kill) | 3+ (3+ represents 100% kill) | 0 (0 represents 0 to 25% damage) | 2 | 0 (0 represents 0 to 25% damage) | – | – | – | – | – | – | – | – | – | – | – | – | – | –
COC(=O)C(C)Oc1ccc(Nc2ccccc2[N+](=O)[O-])cc1 (stereo not shown) [Compound 25] | – | – | – | – | – | – | – | – | – | – | – | – | – | – | – | – | – | – | – | – | damage to plants, Rg (Ryegrass [8]; 10 kg/ha): 3+ (3+ represents 100% kill); damage to plants, Wh (Wheat [9]; 10 kg/ha): 1; damage to plants, Ip (Ipomea [10]; 10 kg/ha): 0 (0 represents from 0 to 25% damage); damage to plants, Jm (Japanese millet [11]; 10 kg/ha): 3 (3 represents 75 to 99% kill); damage to plants, Ms (Mustard [12]; 10 kg/ha): 0 (0 represents from 0 to 25% damage); damage to plants, Sf (Sunflower [13]; 10 kg/ha): 0 (0 represents from 0 to 25% damage); damage to plants, Wh (Wheat [1]; 10 kg/ha): 3 (3 represents 75 to 99% kill); damage to plants, Ip (Ipomea [2]; 10 kg/ha): 0 (0 represents 0 to 25% damage); damage to plants, Jm (Japanese millet [3]; 10 kg/ha): 3+ (3+ represents 100% kill); damage to plants, Ms (Mustard [4]; 10 kg/ha): 0 (0 represents 0 to 25% damage); damage to plants, Rg (Ryegrass [5]; 10 kg/ha): 3+ (3+ represents 100% kill); damage to plants, Sf (Sunflower [6]; 10 kg/ha): 0 (0 represents 0 to 25% damage); damage to plants, Ot (Wild Oats [7]; 10 kg/ha): 3 (3 represents 75 to 99% kill)
COC(=O)C(C)Oc1ccc(Nc2ccc(C)cc2[N+](=O)[O-])cc1 (stereo not shown) [Compound 26] | 3 (3 represents 75 to 99% kill) | 0 (0 represents 0 to 25% damage) | 3+ (3+ represents 100% kill) | 0 (0 represents 0 to 25% damage) | 3 (3 represents 75 to 99% kill) | 0 (0 represents 0 to 25% damage) | 1 | 2 | 3+ (3+ represents 100% kill) | 0 (0 represents from 0 to 25% damage) | 1 | 0 (0 represents from 0 to 25% damage) | 0 (0 represents from 0 to 25% damage) | 0 (0 represents from 0 to 25% damage) | 0 (0 represents from 0 to 25% damage) | 2 | 3 (3 represents 75 to 99% kill) | 0 (0 represents 0 to 25% damage) | 3 (3 represents 75 to 99% kill) | 1 | damage to plants, Ms (Mustard [12]; 1 kg/ha): 0 (0 represents from 0 to 25% damage); damage to plants, Sf (Sunflower [13]; 1 kg/ha): 0 (0 represents from 0 to 25% damage); damage to plants, Ip (Ipomea [2]; 1 kg/ha): 0 (0 represents 0 to 25% damage); damage to plants, Sf (Sunflower [6]; 1 kg/ha): 0 (0 represents 0 to 25% damage)
COC(=O)C(C)Oc1ccc(Nc2ccc(Cl)cc2Cl)cc1 (stereo not shown) [Compound 22] | 3 (3 represents 75 to 99% kill) | – | 3+ (3+ represents 100% kill) | 3+ (3+ represents 100% kill) | 3+ (3+ represents 100% kill) | – | 3+ (3+ represents 100% kill) | – | 2 | – | 0 (0 represents from 0 to 25% damage) | – | 0 (0 represents from 0 to 25% damage) | 0 (0 represents from 0 to 25% damage) | 0 (0 represents from 0 to 25% damage) | 1 | 3+ (3+ represents 100% kill) | 1 | 3+ (3+ represents 100% kill) | 2 | damage to plants, Jm (Japanese millet [11]; 5 kg/ha): 2; damage to plants, Ot (Wild Oats [14]): 0 (0 represents from 0 to 25% damage)
COC(=O)C(C)Oc1ccc(Nc2ccc(Br)cc2N)cc1 (stereo not shown) [Compound 32, Methyl 2-[4-(2-amino-4-bromoanilino)phenoxy] propionate] | – | – | – | – | – | – | – | – | 2 | – | 1 | – | 0 (0 represents from 0 to 25% damage) | 0 (0 represents from 0 to 25% damage) | 0 (0 represents from 0 to 25% damage) | – | – | – | – | – | damage to plants, Jm (Japanese millet [11]; 5 kg/ha): 3 (3 represents 75 to 99% kill); damage to plants, Ot (Wild Oats [14]): 0 (0 represents from 0 to 25% damage)
CC(Oc1ccc(N(C)c2ccc(C(F)(F)F)cc2[N+](=O)[O-])cc1)C(=O)OC1CCCCC1 (stereo not shown) [Compound 80] | 3 (3 represents 75 to 99% kill) | 0 (0 represents 0 to 25% damage) | 3+ (3+ represents 100% kill) | 0 (0 represents 0 to 25% damage) | 3+ (3+ represents 100% kill) | 0 (0 represents 0 to 25% damage) | 3+ (3+ represents 100% kill) | 3 (3 represents 75 to 99% kill) | 3+ (3+ represents 100% kill) | 0 (0 represents from 0 to 25% damage) | 1 | 0 (0 represents from 0 to 25% damage) | 0 (0 represents from 0 to 25% damage) | 0 (0 represents from 0 to 25% damage) | 0 (0 represents from 0 to 25% damage) | 1 | 3+ (3+ represents 100% kill) | 0 (0 represents 0 to 25% damage) | 3 (3 represents 75 to 99% kill) | 3+ (3+ represents 100% kill) | damage to plants, Ms (Mustard [12]; 1 kg/ha): 0 (0 represents from 0 to 25% damage); damage to plants, Sf (Sunflower [13]; 1 kg/ha): 0 (0 represents from 0 to 25% damage); damage to plants, Ip (Ipomea [2]; 1 kg/ha): 0 (0 represents 0 to 25% damage); damage to plants, Sf (Sunflower [6]; 1 kg/ha): 0 (0 represents 0 to 25% damage)
CC(Oc1ccc(Nc2ccc(Cl)cc2[N+](=O)[O-])cc1)C(=O)OC1CCCCC1 (stereo not shown) [Compound 79] | 3 (3 represents 75 to 99% kill) | 0 (0 represents 0 to 25% damage) | 3+ (3+ represents 100% kill) | 0 (0 represents 0 to 25% damage) | 3 (3 represents 75 to 99% kill) | 0 (0 represents 0 to 25% damage) | 3 (3 represents 75 to 99% kill) | 3 (3 represents 75 to 99% kill) | 3 (3 represents 75 to 99% kill) | 0 (0 represents from 0 to 25% damage) | 0 (0 represents from 0 to 25% damage) | 0 (0 represents from 0 to 25% damage) | 0 (0 represents from 0 to 25% damage) | 0 (0 represents from 0 to 25% damage) | 0 (0 represents from 0 to 25% damage) | 2 | 3+ (3+ represents 100% kill) | 0 (0 represents 0 to 25% damage) | 3+ (3+ represents 100% kill) | 3 (3 represents 75 to 99% kill) | damage to plants, Jm (Japanese millet [11]; 1 kg/ha): 3 (3 represents 75 to 99% kill); damage to plants, Jm (Japanese millet [11]; 5 kg/ha): 3+ (3+ represents 100% kill); damage to plants, Ms (Mustard [12]; 1 kg/ha): 0 (0 represents from 0 to 25% damage); damage to plants, Sf (Sunflower [13]; 1 kg/ha): 0 (0 represents from 0 to 25% damage); damage to plants, Ip (Ipomea [2]; 1 kg/ha): 0 (0 represents 0 to 25% damage); damage to plants, Sf (Sunflower [6]; 1 kg/ha): 0 (0 represents 0 to 25% damage)
